These compounds were tested on Pseudoperonospora cubensis (assay: Cucumber downy mildew (CDM) control test). Conditions: Table 8: D-tagatose liquid preparation with assistant (5 parts), 10-fold dilution (D-tagatose 0.5%+assistant 0.5%); improvement vs D-tagatose only.
Assay type: in vivo

Row | Compound | Evaluation Score CDM
1 | N[C@@H](CS)C(=O)O [L-cysteine] | 3 (Improvement in preventive value of 20 to less than 30)
2 | OC[C@@H](O)[C@@H](O)[C@H](O)[C@@H](O)CO [D-sorbitol] | 1 (Improvement in preventive value of 1 to less than 10)
3 | Nc1ncnc2[nH]cnc12 [Adenine] | 0
4 | O=C[C@H](O)[C@@H](O)[C@H](O[C@@H]1O[C@H](CO)[C@@H](O)[C@H](O)[C@H]1O)[C@H](O)CO [Cellobiose] | 1 (Improvement in preventive value of 1 to less than 10)
5 | O=C[C@@H](O)[C@H](O)[C@H](O)CO [D-arabinose] | 1 (Improvement in preventive value of 1 to less than 10)
6 | C[C@@H]1OC(O)[C@@H](O)[C@H](O)[C@@H]1O (stereo partly drawn) [L-fucose] | 2 (Improvement in preventive value of 10 to less than 20)
7 | OC[C@@H](O)[C@@H](O)[C@@H](O)[C@@H](O)CO [Allitol] | 2 (Improvement in preventive value of 10 to less than 20)
8 | N[C@@H](Cc1c[nH]cn1)C(=O)O [L-histidine] | 3 (Improvement in preventive value of 20 to less than 30)
9 | CC(O)C(=O)O (stereo not shown) [Lactic acid] | 0
10 | O=C[C@H](O)CO [D-glyceraldehyde] | 4 (Improvement in preventive value of 30 to less than 40)
11 | OC[C@H]1OC(O)[C@@H](O)[C@H](O)[C@@H]1O (stereo partly drawn) [D-altrose] | 4 (Improvement in preventive value of 30 to less than 40)
12 | O=C(O)[C@@H]1CCCN1 [L-proline] | 1 (Improvement in preventive value of 1 to less than 10)
13 | C[C@H](O)[C@H](O)[C@@H](O)[C@@H](O)C=O [L-rhamnose] | 2 (Improvement in preventive value of 10 to less than 20)
14 | O=C[C@H](O)[C@@H](O)[C@H](O)[C@H](O)C(=O)[O-].[Na+] [Sodium D-glucuronate] | 1 (Improvement in preventive value of 1 to less than 10)
15 | OC[C@H]1O[C@H](O[C@H]2O[C@H](CO)[C@@H](O)[C@H](O)[C@H]2O)[C@H](O)[C@@H](O)[C@@H]1O [Trehalose] | 3 (Improvement in preventive value of 20 to less than 30)
16 | O=C[C@H](O)[C@@H](O)[C@H](O)CO [D-xylose] | 1 (Improvement in preventive value of 1 to less than 10)
17 | OC[C@@H](O)[C@@H](O)[C@H](O)[C@H](O)CO [D-mannitol] | 1 (Improvement in preventive value of 1 to less than 10)
18 | NC(=O)CC[C@H](N)C(=O)O [L-glutamine] | 1 (Improvement in preventive value of 1 to less than 10)
19 | L-valine | 3 (Improvement in preventive value of 20 to less than 30)
20 | N[C@@H](CO)C(=O)O [L-serine] | 1 (Improvement in preventive value of 1 to less than 10)
21 | CC[C@H](C)[C@H](N)C(=O)O [L-isoleucine] | 1 (Improvement in preventive value of 1 to less than 10)
22 | O=C(CO)[C@@H](O)[C@H](O)[C@H](O)CO [D-fructose] | 2 (Improvement in preventive value of 10 to less than 20)
23 | N[C@@H](Cc1ccccc1)C(=O)O [L-phenylalanine] | 3 (Improvement in preventive value of 20 to less than 30)
24 | OC[C@@H](O)[C@@H](O)CO [Meso-erythritol] | 3 (Improvement in preventive value of 20 to less than 30)
25 | Nc1nc2c(ncn2[C@@H]2O[C@H](CO)[C@@H](O)[C@H]2O)c(=O)[nH]1 [Guanosine] | 0
26 | OC[C@H]1O[C@H](OC[C@H]2O[C@H](O[C@]3(CO)O[C@H](CO)[C@@H](O)[C@@H]3O)[C@H](O)[C@@H](O)[C@@H]2O)[C@H](O)[C@@H](O)[C@H]1O [Raffinose] | 4 (Improvement in preventive value of 30 to less than 40)
27 | OC[C@H]1O[C@H](O[C@H]2[C@H](O)[C@@H](O)C(O)O[C@@H]2CO)[C@H](O)[C@@H](O)[C@@H]1O (mixture of isomers) [Maltose] | 1 (Improvement in preventive value of 1 to less than 10)

Same assay, conditions: in vivo

Row | Compound | Evaluation Score CDM
28 | O=C(O)CCCC(=O)O [Glutaric acid] | 0

Reference: US9861099B2, “Composition for enhancing plant disease control effect of monosaccharide” (MITSUI CHEMICALS AGRO, INC., priority 2013, dated 2018)
